Data taken from US6375979B2 (Somerset Pharmaceuticals, Inc., priority 1995, dated 2002).
“And” between values parts separate entries of the source, which are not always exact repeats. Equal entries are not always repeated. Where two headings read alike, the source gives them in different places.

Assays:
[1] = target: T1, dopamine re-uptake system (Rattus norvegicus, UniProt P23977); experiment: Inhibition of dopamine re-uptake in rat neostriatal synaptosome preparation; assay type: biochemical
T1 construct: (synaptosome preparation) was obtained form fresh rat neostriatal brain tissue; from tissue; host or cells: rat neostriatum, synaptosome preparation
T1 sequence (P23977 whole entry): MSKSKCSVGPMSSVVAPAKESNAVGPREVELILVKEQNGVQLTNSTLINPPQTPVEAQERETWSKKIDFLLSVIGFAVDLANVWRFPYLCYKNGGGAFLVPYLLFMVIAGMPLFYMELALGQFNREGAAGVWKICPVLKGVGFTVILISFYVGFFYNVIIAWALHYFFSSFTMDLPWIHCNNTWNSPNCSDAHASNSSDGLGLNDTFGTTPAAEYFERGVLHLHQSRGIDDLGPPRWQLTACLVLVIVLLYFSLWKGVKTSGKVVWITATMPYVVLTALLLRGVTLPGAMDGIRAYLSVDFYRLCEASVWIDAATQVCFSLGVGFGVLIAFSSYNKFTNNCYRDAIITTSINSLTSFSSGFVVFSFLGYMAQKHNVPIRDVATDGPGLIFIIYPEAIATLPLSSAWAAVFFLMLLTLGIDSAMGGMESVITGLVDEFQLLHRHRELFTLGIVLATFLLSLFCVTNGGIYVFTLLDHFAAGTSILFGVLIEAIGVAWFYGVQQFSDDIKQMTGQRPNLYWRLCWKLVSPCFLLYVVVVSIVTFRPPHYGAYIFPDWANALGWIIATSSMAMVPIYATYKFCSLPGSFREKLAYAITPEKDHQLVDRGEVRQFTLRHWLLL
Method: An in vitro nerve terminal preparation (synaptosome preparation) was prepared using fresh rat neostriatal tissue.
FIG. 19: Determination of IC50 Values for Inhibition of Dopamine Re-Uptake.
An in vitro nerve-terminal preparation (synaptosome preparation) was obtained form fresh rat neostriatal brain tissue. Transport by dopamine nerve-terminals was estimated by measuring the uptake of tritiated dopamine.

interleukin-2 production = experiment: Concanavalin A-induced interleukin-2 production by spleen cells of treated old rats; assay type: in vivo, rat; details: for IL-2 % control / IL-2 U/ml mean: ip daily 60 days
Method: The present experiments utilized a rat model to examine the ability of R(−)DMS and S(+)DMS to restore immunological function. Rats were divided into the following experimental groups:
(§1) Rats were administered saline or test agent ip, daily for 60 days. They were then maintained for an additional “wash out” period of 10 days during which time no treatment was given. At the end of this time, animals were sacrificed and their spleens were removed. The spleen cells were then assayed for a variety of factors which are indicative of immune system function. Specifically, standard tests were employed to determine the following:
2) in vitro concanavalin A-induced production of interleukin-2;

γ-interferon production = γ-interferon production by concanavalin A-stimulated spleen cells of treated old rats; assay type: in vivo, rat; details: for IFN-γ % control / IFN-γ U/ml mean: old rats, ip daily 60 days, 1.0 mg/kg (for DMS enantiomers)
Method: Rats were divided into the following experimental groups:
as §1
1) in vitro production of γ-interferon by concanavalin A-stimulated spleen cells;

rat spleens = experiment: Histological immunofluorescence of spleen innervation in old rats; assay type: in vivo; details: ip daily 60 days
Method: as §1
Histological immunofluorescence studies show a dramatic loss of innervation in rat spleens with age.

[2] = tested on: cultured rat mesencephalic cells exposed to NMDA; experiment: NMDA model of cell death: [3H]-dopamine uptake; details: 100 μM NMDA exposure
[3] = tested on: cultured rat mesencephalic cells; experiment: Medium change (glutamate receptor dependent) model of cell death: [3H]-dopamine uptake; details: for more axonal growth and terminal axonal survival compared to untreated control cells / 3H-Dopamine uptake as a percentage + SEM: 10 μM; for more axonal growth and terminal axonal survival compared to untreated control cells / 3H-Dopamine uptake as a percentage + SEM / Dopamine uptake, % control, Mean / Dopamine uptake, % control, individual cultures / Dopamine uptake, counts/min, Mean / Dopamine uptake, counts/min, individual cultures: medium change model; for 3H-Dopamine uptake as a percentage + SEM: control = 100; for neuron protection by measurement of dopamine uptake (FIG. 15): glutamate receptor dependent model
Method: Preparations are then added to 10 ml Ecoscint (National Diagnostics) and counted in a scintillation spectrometer.
In these experiments, cells were plated and allowed to stabilize for several days.

MAO-A = target: T2, MAO-A (Cavia porcellus, UniProt H0UVA2); experiment: MAO-A inhibition in guinea pig hippocampal homogenates in vitro; assay type: biochemical; parameters: by human platelets and/or guinea pig hippocampal homogenates; from tissue; host or cells: guinea pig hippocampus homogenate; details: for reduction in potency compared to selegiline (value in parentheses): MAO-A IC50, guinea pig hippocampal cortex
T2 sequence (H0UVA2 1-461): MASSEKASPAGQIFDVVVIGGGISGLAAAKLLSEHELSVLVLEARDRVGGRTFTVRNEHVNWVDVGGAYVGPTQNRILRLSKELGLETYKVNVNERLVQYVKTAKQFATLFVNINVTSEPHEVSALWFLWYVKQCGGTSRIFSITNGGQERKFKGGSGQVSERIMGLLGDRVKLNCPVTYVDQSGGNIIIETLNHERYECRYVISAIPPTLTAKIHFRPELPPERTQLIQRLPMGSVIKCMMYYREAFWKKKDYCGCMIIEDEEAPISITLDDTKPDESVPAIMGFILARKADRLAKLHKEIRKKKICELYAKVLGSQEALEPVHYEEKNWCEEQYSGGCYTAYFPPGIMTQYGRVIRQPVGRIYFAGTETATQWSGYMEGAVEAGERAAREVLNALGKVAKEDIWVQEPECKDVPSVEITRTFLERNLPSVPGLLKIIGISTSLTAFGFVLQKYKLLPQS
Text: Human platelet MAO is comprised exclusively of the type-B isoform of the enzyme. […] The present study also examined the two enantiomers of DMS for inhibitory activity with respect to the MAO-A and MAO-B in guinea pig hippocampal tissue. Guinea pig brain tissue is an excellent animal model for studying brain dopamine metabolism, the enzyme kinetics of the multiple forms of MAO and the inhibitory properties of novel agents that interact with these enzymes. The multiple forms of MAO in this animal species show similar kinetic properties to those found in human brain tissue. Finally, the test agents were administered to guinea pigs and the extent to which they might act as inhibitors of brain MAO in vivo was assessed.
In vitro: The test system utilized the in vitro conversion of specific substrates of MAO-A (^14C-serotonin) and MAO-B (^14C-phenylethylamine) by human platelets and/or guinea pig hippocampal homogenates. […] A percent inhibition was calculated from these values.

[4] = 1.0 mg/kg (for DMS enantiomers)

Molecule: C#CCN[C@@H](C)Cc1ccccc1 (single isomer, unassigned) [S(+)DMS, ent-desmethylselegiline]
- times more potent than either selegiline or R(−)DMS at inhibiting dopamine re-uptake [1]: 4-5 times
- 3H-Dopamine uptake, % Reduction x ± SEM ([1]; 1 μM): 24.1 ± 11.7%
- 3H-Dopamine uptake, % Reduction x ± SEM ([1]; 10 μM): 47.0 ± 3.1%
- 3H-Dopamine uptake, % Reduction x ± SEM ([1]; 100 μM): 15.3 ± 7.7%
- IL-2 production after treatment (interleukin-2 production): not enhanced
- IL-2 % control (interleukin-2 production; [4]): 291%
- IL-2 U/ml mean (interleukin-2 production; [4]): 57.12 U/ml
- γ-interferon levels in old rats after administration (γ-interferon production; most dramatic increases at 1.0 mg/kg body weight): restoration of γ-interferon levels
- IFN-γ % control (γ-interferon production): 261%
- IFN-γ U/ml mean (γ-interferon production): 918 U/ml
- innervation in the spleens, histological examination (rat spleens): did not show any effect
- Dopamine uptake, % control, Mean ([2]; 0.5 μM): 187.4%
- Dopamine uptake, % control, individual cultures ([2]; 0.5 μM): 164.2% and 179.0% and 181.6% and 242.7% and 169.2%
- Dopamine uptake, counts/min, Mean ([2]; 0.5 μM): 12658.2 counts/min
- Dopamine uptake, counts/min, individual cultures ([2]; 0.5 μM): 11096 counts/min and 12092 counts/min and 12269 counts/min and 16399 counts/min and 11435 counts/min
- Dopamine uptake, % control, Mean ([2]; 5.0 μM): 246.9%
- Dopamine uptake, % control, individual cultures ([2]; 5.0 μM): 229.9% and 300.6% and 245.4% and 235.8% and 222.8%
- Dopamine uptake, counts/min, Mean ([2]; 5.0 μM): 16681.6 counts/min
- Dopamine uptake, counts/min, individual cultures ([2]; 5.0 μM): 15535 counts/min and 20313 counts/min and 16579 counts/min and 15929 counts/min and 15052 counts/min
- Dopamine uptake, % control, Mean ([2]; 50 μM): 448.9%
- Dopamine uptake, % control, individual cultures ([2]; 50 μM): 371.5% and 384.0% and 422.5% and 577.9% and 488.8%
- Dopamine uptake, counts/min, Mean ([2]; 50 μM): 30331.2 counts/min
- Dopamine uptake, counts/min, individual cultures ([2]; 50 μM): 25101 counts/min and 25944 counts/min and 28545 counts/min and 39042 counts/min and 33024 counts/min
- more axonal growth and terminal axonal survival compared to untreated control cells [3]: 134%
- 3H-Dopamine uptake as a percentage + SEM [3]: 234 ± 38.36%
- IC50 (MAO-A): 100 µM
- inhibition at 1 µM (MAO-A; 1 μM, guinea pig hippocampus, read-out: MAO-A % Inhibition x = SEM): 3.3 ± 1.5%
- inhibition at 3 µM (MAO-A; 3 μM, guinea pig hippocampus, read-out: MAO-A % Inhibition x = SEM): 4.3 ± 1%
- inhibition at 10 µM (MAO-A; 10 μM, guinea pig hippocampus, read-out: MAO-A % Inhibition x = SEM): 10.5 ± 1.47%
- inhibition at 100 µM (MAO-A; 100 μM, guinea pig hippocampus, read-out: MAO-A % Inhibition x = SEM): 48.4 ± 1.8%
- inhibition at 1000 µM (MAO-A; 1 mM, guinea pig hippocampus, read-out: MAO-A % Inhibition x = SEM): 92.7 ± 2.5%
- inhibition at 10000 µM (MAO-A; 10 mM, guinea pig hippocampus, read-out: MAO-A % Inhibition x = SEM): 99.6 ± 0.35%
- reduction in potency compared to selegiline (value in parentheses) (MAO-A): 40

Molecule: desmethylselegiline [R(−)DMS]
- 3H-Dopamine uptake, % Reduction x ± SEM ([1]; 1 μM): 10.7 ± 2.8%
- 3H-Dopamine uptake, % Reduction x ± SEM ([1]; 10 μM): 20.1 ± 3.1%
- 3H-Dopamine uptake, % Reduction x ± SEM ([1]; 100 μM): 11.5 ± 1.0%
- 3H-Dopamine uptake, % Reduction x ± SEM ([1]; 100 μM (last row of each agent)): 51.3 ± 2.6%
- IL-2 production after treatment (interleukin-2 production): not enhanced
- IL-2 % control (interleukin-2 production; [4]): 223%
- IL-2 U/ml mean (interleukin-2 production; [4]): 43.7 U/ml
- IL-2 U/ml mean (interleukin-2 production; […] (for R(−)DMS by group order)): 64.54 U/ml
- IL-2 U/ml mean (interleukin-2 production; dose not printed in row, by group order […]): 55.17 U/ml
- IFN-γ % control (γ-interferon production): 777%
- IFN-γ U/ml mean (γ-interferon production): 2728 U/ml
- innervation in the spleens, histological examination (rat spleens): significant increase in innervation
- Dopamine uptake, % control, Mean ([2]; 0.5 μM): 138.6%
- Dopamine uptake, % control, individual cultures ([2]; 0.5 μM): 167.3% and 138.9% and 132.9% and 133.6% and 120.4%
- Dopamine uptake, counts/min, Mean ([2]; 0.5 μM): 9365.2 counts/min
- Dopamine uptake, counts/min, individual cultures ([2]; 0.5 μM): 11304 counts/min and 9385 counts/min and 8976 counts/min and 9028 counts/min and 8133 counts/min
- Dopamine uptake, % control, Mean ([2]; 5.0 μM): 177.6%
- Dopamine uptake, % control, individual cultures ([2]; 5.0 μM): 163.0% and 199.9% and 169.8% and 204.0% and 151.4%
- Dopamine uptake, counts/min, Mean ([2]; 5.0 μM): 12001.8 counts/min
- Dopamine uptake, counts/min, individual cultures ([2]; 5.0 μM): 11014 counts/min and 13509 counts/min and 11471 counts/min and 13786 counts/min and 10229 counts/min
- Dopamine uptake, % control, Mean ([2]; 50 μM): 304.3%
- Dopamine uptake, % control, individual cultures ([2]; 50 μM): 262.1% and 341.8% and 318.7% and 259.3% and 339.9%
- Dopamine uptake, counts/min, Mean ([2]; 50 μM): 20562.2 counts/min
- Dopamine uptake, counts/min, individual cultures ([2]; 50 μM): 17708 counts/min and 23090 counts/min and 21530 counts/min and 17520 counts/min and 22963 counts/min
- Dopamine uptake, % control, Mean ([3]; 0.5 μM): 141.9%
- Dopamine uptake, % control, individual cultures ([3]; 0.5 μM): 142.3% and 152.4% and 142.6% and 130.4%
- Dopamine uptake, counts/min, Mean ([3]; 0.5 μM): 29800.75 counts/min
- Dopamine uptake, counts/min, individual cultures ([3]; 0.5 μM): 29885 counts/min and 32002 counts/min and 29934 counts/min and 27382 counts/min
- neuron protection by measurement of dopamine uptake (FIG. 15) ([3]; 5 μM): neuron protection
- Dopamine uptake, % control, Mean ([3]; 5.0 μM): 153.7%
- Dopamine uptake, % control, individual cultures ([3]; 5.0 μM): 155.2% and 142.1% and 173.2% and 144.5%
- Dopamine uptake, counts/min, Mean ([3]; 5.0 μM): 32280 counts/min
- Dopamine uptake, counts/min, individual cultures ([3]; 5.0 μM): 32577 counts/min and 29831 counts/min and 36370 counts/min and 30342 counts/min
- more axonal growth and terminal axonal survival compared to untreated control cells [3]: 40%
- 3H-Dopamine uptake as a percentage + SEM [3]: 140.82 ± 26.20%
- neuron protection by measurement of dopamine uptake (FIG. 15) ([3]; 50 μM): neuron protection
- Dopamine uptake, % control, Mean ([3]; 50 μM): 185.5%
- Dopamine uptake, % control, individual cultures ([3]; 50 μM): 178.3% and 186.7% and 186.3% and 190.6%
- Dopamine uptake, counts/min, Mean ([3]; 50 μM): 38944.75 counts/min
- Dopamine uptake, counts/min, individual cultures ([3]; 50 μM): 37440 counts/min and 39200 counts/min and 39126 counts/min and 40013 counts/min
- MAO-A % Inhibition x = SEM (MAO-A; 300 nM, guinea pig hippocampus): 4.8 ± 2.1%
- MAO-A % Inhibition x = SEM (MAO-A; 1 μM, guinea pig hippocampus): 4.2 ± 1.5%
- MAO-A % Inhibition x = SEM (MAO-A; 3 μM, guinea pig hippocampus): 10.5 ± 2.0%
- MAO-A % Inhibition x = SEM (MAO-A; 10 μM, guinea pig hippocampus): 19.0 ± 1.3%
- MAO-A % Inhibition x = SEM (MAO-A; 100 μM, guinea pig hippocampus): 64.2 ± 1.5%
- MAO-A % Inhibition x = SEM (MAO-A; 1 mM, guinea pig hippocampus): 96.5 ± 1.2%
- reduction in potency compared to selegiline (value in parentheses) (MAO-A): 20
- IC50 (MAO-A; read-out: IC50 for MAO-A in Guinea Pig Hippocampal Cortex): 50 µM
